The source made the active and inactive calls. How the calls were made is not given here.
Experiment: non-covalent RecA intein splicing inhibitors, dose response, biochemical, cell-free, fluorescence, secondary screen (AID 449750)

Row | Compound | AC50
1 | CC1=NN(c2cccc(Cl)c2)C(=O)C12CC(C)=C(C)CS2 (stereo not drawn) | 21.7 µM
2 | c1ccc(-c2nc(N3CCCCCC3)nc(-n3ccnc3)n2)cc1 | > 38 µM (inactive)
3 | Cc1[nH]nc2c1C1(CCN(C(=O)c3ccccc3)CC1)C(C#N)=C(N)O2 | > 38 µM (inactive)
4 | COc1cc(/C=C/c2cc[n+](C)cc2)ccc1OCC(=O)Nc1ccc(Cl)c(Cl)c1 | > 38 µM (inactive)
5 | Cn1nc(-c2ccc(Cl)cc2)nc2c(=O)n(C)c(=O)nc1-2 | 0.0579 µM
6 | CCOC(=O)c1ccc(CC2S/C(=C(\C#N)C(C)=O)NC2=O)cc1 (stereo not drawn) | > 38 µM (inactive)
7 | Cc1ccc(NC2=C(N3CCOCC3)C(=O)c3ccccc3C2=O)cc1 | 11.3 µM
8 | Cc1cc(C(=O)N/N=C/c2c(C)[nH]n(-c3ccccc3)c2=O)n[nH]1 | 3.74 µM
9 | CCOC(=O)N1C(=O)[C@](c2ccc(Cl)cc2)(C(C)C)N1C(=O)OCC | 1.75 µM
10 | Cc1ccccc1N(Cc1cc(=O)[nH]c2ccccc12)C(=O)CCl | 8.32 µM
11 | CC1=NN(C)C(=O)C1Cc1c(F)cccc1Cl (stereo not drawn) | > 38 µM (inactive)
12 | O=C1CCCC(O)=C1C(C#Cc1ccccc1)C1=C(O)CCCC1=O | 14.7 µM
13 | Cc1[nH][nH]c(=O)c1C(c1ccc(Cl)cc1)c1c(C)[nH][nH]c1=O | 18.1 µM
14 | CC(=O)c1c(C)nc(-c2ccc(Cl)cc2)nc1N=CN(C)C | > 38 µM (inactive)
15 | O=C(CSc1c2c(nc3cc(Cl)ccc13)CCCC2)NCc1ccco1 | 26.4 µM
16 | CCCCCCCCCCOC(=O)Cn1c(COc2ccccc2OC)[n+](C)c2ccccc21 | 7.46 µM
17 | CCOc1ccc(-n2c(C)cc(C(=O)CCl)c2C)cc1 | 9.25 µM
18 | O=C(O)/C=C/C(=O)Nc1ccc(C2(c3ccc(NC(=O)/C=C/C(=O)O)cc3)c3ccccc3-c3ccccc32)cc1 | 4.61 µM
19 | Cc1[nH][nH]c(=O)c1C(c1ccc2c(c1)OCO2)c1c(C)[nH][nH]c1=O | 19 µM
20 | CC1=NN(CCC#N)C(=O)/C1=C/c1ccc(N(C)C)cc1 | 22.4 µM
21 | CCCc1[nH]nc2c1C(c1ccncc1)C(C#N)=C(N)O2 (stereo not drawn) | > 38 µM (inactive)
22 | COC(=O)c1ccc(NC(=O)c2nc(S(=O)(=O)Cc3cccc(C)c3)ncc2Cl)cc1 | 17.1 µM
23 | COc1ccc2c(c1)C(=C(C#N)C#N)C(=O)N2CCc1ccccc1 | > 38 µM (inactive)
24 | CC(=O)N(Cc1ccc(F)cc1)C1=C(NCc2ccccc2)C(=O)c2ccccc2C1=O | 2.18 µM
25 | O=C(c1ccco1)N1CCN(c2nc(C3CC3)nc3sc4c(c23)CCCC4)CC1 | 12.7 µM

Row | Compound | AC50
26 | COc1cc(Br)c(C(=O)c2nccc3cc(OC)c(OC)cc23)cc1OC | 6.24 µM
27 | O=C(Nc1ncc([N+](=O)[O-])s1)c1ccco1 | > 38 µM (inactive)
28 | C#CCOC(=O)c1ccccc1C(=O)n1nnc2ccccc21 | > 38 µM (inactive)
29 | COc1ccc(/C=C2/SC(=S)N(CCCC(=O)Nc3cccc(O)c3)C2=O)cc1 | > 38 µM (inactive)
30 | O=C(CCl)N=c1sccn1Cc1ccc(Cl)cc1Cl | 5.88 µM
31 | Cc1[nH][nH]c(=O)c1C(c1ccc(-c2ccccc2C(=O)O)o1)c1c(C)[nH][nH]c1=O | 3.19 µM
32 | COC(=O)CCS(=O)(=O)c1nc(-c2ccccc2)cc(C(F)(F)F)n1 | > 38 µM (inactive)
33 | CCC(C)N(CC(=O)Nc1cccc(C)c1C)C(=O)CCl (stereo not drawn) | 30.2 µM
34 | CCc1ccc(S(=O)(=O)/N=C2\C=C(Nc3cccc(C(=O)O)c3)C(=O)c3ccccc32)cc1 | 0.353 µM
35 | O=C(c1ccc2nc(Cc3cccc(Cl)c3)oc2c1)N1CCC(O)CC1 | > 38 µM (inactive)
36 | COc1ccc(N2CCN(C(=O)c3ccc(Oc4ccc(C(F)(F)F)cn4)cc3)CC2)cc1 | > 38 µM (inactive)
37 | C/C(CC(=O)Nc1cc(C)ccn1)=N\NC(=O)COc1cccc(C)c1 | 11.1 µM
38 | CCOC1=C/C(=C/c2c(N)n3oc(C)cc3nc2=O)C=CC1=O | > 38 µM (inactive)
39 | O=c1c2ccccc2nc(/C=C/c2cccnc2)n1Cc1ccccc1 | 13.6 µM
40 | Cn1c(=O)c([N+](=O)[O-])c(Cl)c2ccccc21 | > 38 µM (inactive)
41 | CCc1[nH]nc2c1C1(CCN(C(=O)c3ccccc3)CC1)C(C#N)=C(N)O2 | 25 µM
42 | COc1cc(/C=C2\C(=O)N(CCC#N)N=C2C)ccc1OCC(=O)Nc1ccccc1 | 8.37 µM
43 | O=C(O)CSc1cc(NS(=O)(=O)c2ccc(Br)cc2)c2ccccc2c1O | 2.2 µM
44 | O=C(O)c1ccccc1-c1ccccc1C(=O)Nc1ccc(-c2nc3cc(Cl)ccc3o2)cc1 | 9.29 µM
45 | CC1=NNC(=O)C1Cc1ccccc1C (stereo not drawn) | > 38 µM (inactive)
46 | CCSc1nnc(NC(=O)c2nc(S(=O)(=O)Cc3ccc(F)cc3)ncc2Cl)s1 | > 38 µM (inactive)
47 | CCOc1cccc(-c2cc(=O)[nH][nH]2)c1 | 10.7 µM
48 | O=C(Oc1ccc(Br)cc1C(=S)N1CCCCC1)c1cc([N+](=O)[O-])cc([N+](=O)[O-])c1 | > 38 µM (inactive)
49 | CC1=NN(c2ccc(Cl)c(C(=O)O)c2)C(=O)/C1=C\c1ccc(-c2ccc(C(=O)O)cc2)o1 | 34.1 µM
50 | COc1cc(N=Nc2cccc(S(N)(=O)=O)c2)c2ccccc2c1N | 34.1 µM

Row | Compound | AC50
51 | ClC(Cl)(Cl)c1nc2ccccc2n2nncc12 | > 38 µM (inactive)
52 | O=C1CCN(N=Nc2cccc(Cl)c2)N1 | > 38 µM (inactive)
53 | [O-]C1=N/[N+](=C/c2ccccc2Cl)CC1 | > 38 µM (inactive)
54 | CC(=O)Oc1c(Br)cc(N(C(C)=O)S(=O)(=O)c2ccccc2)c2ccccc12 | 8.88 µM
55 | COc1ccc(-c2[nH]nc3c2C(c2ccncc2)C(C#N)=C(N)O3)cc1 (stereo not drawn) | 39.9 µM
56 | COc1ccc(OC)c(NC(=O)Cc2ccc(NC3=NC4CS(=O)(=O)CC4S3)cc2)c1 (stereo not drawn) | > 38 µM (inactive)
57 | CC(=O)N1CC2(c3ccccc3)CN(C(C)=O)CC(c3ccccc3)(C1)C2=O | > 38 µM (inactive)
58 | COc1ccc(NC(=O)/C(Cl)=C(/Cl)S(=O)Cc2ccccc2)cn1 (stereo not drawn) | > 38 µM (inactive)
59 | COc1cccc(CN2CCN(Cc3ccc(C#CC(C)(C)O)s3)CC2CCO)c1 (stereo not drawn) | > 38 µM (inactive)
60 | COc1cc(C(c2c(C)[nH][nH]c2=O)c2c(C)[nH][nH]c2=O)ccc1OS(=O)(=O)c1ccc(C)cc1 | 8.13 µM
61 | CC1=C(C)/C(=N\OC(=O)/C=C/c2ccccc2)C=CC1=O | > 38 µM (inactive)
62 | COc1ccc(COC(=O)N/N=C(\C)CC(=O)Nc2ccc(Cl)cn2)cc1 | > 38 µM (inactive)
63 | CCN(Cc1ccccc1)S(=O)(=O)c1ccc(C(=O)N(CCCN(C)C)c2nc3cc(C)cc(C)c3s2)cc1 | 15.1 µM
64 | O=C1C=C(N2CCCCC2)c2ccccc2C1=O | 10.4 µM
65 | CCOC(=O)c1nnn(-c2nonc2-n2cccc2)c1CCl | 26.6 µM
66 | CC1=NN(c2ccc(C(=O)O)cc2)C(=O)/C1=C\c1ccc(OC(=O)c2cccs2)cc1 | 2.25 µM
67 | CC1(C)CC(CCNC(=O)CCl)(c2ccccc2)CCO1 (stereo not drawn) | 21.3 µM
68 | Cc1ccc(NC(=O)c2nc(S(=O)(=O)Cc3ccccc3)ncc2Cl)cc1 | > 38 µM (inactive)
69 | COc1cc(/C=N/NC(=S)Nc2cccc(Cl)c2C)ccc1OCC(=O)N1CC(C)OC(C)C1 (stereo not drawn) | > 38 µM (inactive)
70 | CCOC(=O)c1c(C)oc2c1c1c(c3ccccc32)OCN(CCCC(=O)O)C1 | 4.93 µM
71 | CC1CCc2c(sc3nc(C(C)(C)C)nc(N4CCN(C(=O)CCl)CC4)c23)C1 (stereo not drawn) | 2.61 µM
72 | COc1cc(/C=C(\C#N)c2nc3ccccc3o2)ccc1O | > 38 µM (inactive)
73 | CSc1nc(=S)n(-c2ccc([N+](=O)[O-])cc2)c(C)c1C(C)=O | > 38 µM (inactive)
